Reference: patent publication EP4768499A1, “MACROCYCLIC PEPTIDE COMPOUND HAVING CELL MEMBRANE PERMEABILITY AND METABOLIC STABILITY, AND LIBRARY CONTAINING SAME” (Chugai Seiyaku Kabushiki Kaisha, priority 2023, dated 2025)
Starred links: 1 amine or outer side, 2 acyl side, 3 side chain; linkers in the order of their positions; H or OH if unused. Positions of bridges follow the written chain, without caps; N, C: chain ends. Non-standard residues stand in square brackets, D forms with d. Residues, ends and D or L forms follow the SMILES beside them. *: point of attachment. NMeF = CN[C@@H](Cc1ccccc1)C(=O)O; NMeI = CC[C@H](C)[C@H](NC)C(=O)O; NMeT = CN[C@H](C(=O)O)[C@@H](C)O; hPhe = N[C@@H](CCc1ccccc1)C(=O)O; NMeβAla = CN(CCC(=O)[*:2])[*:1]; NMeD = CN[C@@H](CC(=O)O)C(=O)O; NMeL = CN[C@@H](CC(C)C)C(=O)O; NMeV = CN[C@H](C(=O)O)C(C)C; NMeAbu = CC[C@H](NC)C(=O)O; NMeA = CN[C@@H](C)C(=O)O; Piperidide = C1CCN(*)CC1; Abu = CC[C@H](N)C(=O)O; NBuGly = CCCCNCC(=O)O; Sar = CNCC(=O)O; tBu = CC(C)(C)*

Key:
[1] = Membrane permeability test using Caco-2 cells with preincubation; format: in vitro ADME; settings: Caco-2; preincubation 20 to 24 hours; Apical FaSSIF/HBSS pH 6.0, Basal HBSS 4% BSA pH 7.4; 180 minutes; read-out: Caco2 Papp
Caco-2 cells = experiment: as above; format: in vitro ADME; settings: Caco-2 cells, preincubation 20 to 24 hours; apical FaSSIF/HBSS 1% DMSO pH 6.0, basal HBSS 4% BSA pH 7.4; basal sample at 180 minutes
[2] = Metabolic stability test: liver microsomal stability assay; format: in vitro ADME, mouse; settings: mouse liver microsomes 0.5 mg protein/mL, compound 1 µM; for microsomal CLint at 1 µM: male, pH 7.4, presence of NADPH, read-out: Mouse Hepatic Microsome CLh,int NADPH(+); for Mouse Hepatic Microsome CLh,int NADPH(-): absence of NADPH

Papp A→B [1] [×10⁻⁶ cm/s] | Caco2 Papp (10^-6 cm/sec) (Caco-2 cells) | microsomal CLint at 1 µM [2] [µL/min/mg] | Mouse Hepatic Microsome CLh,int NADPH(-) [2] [µL/min/mg Protein] | SMILES
0.13 | 0.13 10^-6 cm/sec | 32.4 | 34.0 | CC[C@H](C)[C@@H]1NC(=O)[C@H](CC(C)C)N(C)C(=O)[C@H](CC(C)C)NC(=O)CCN(C)C(=O)C[C@@H](C(=O)N2CCCCC2)N(C)C(=O)[C@H](CC(C)C)N(C)C(=O)[C@H](C)N(C)C(=O)[C@H]([C@@H](C)O)N(C)C(=O)[C@H](CC(C)C)N(C)C(=O)[C@H](COC(C)(C)C)NC(=O)[C@H](Cc2ccccc2)N(C)C(=O)[C@H](CC(C)C)N(C)C(=O)[C@H](Cc2ccccc2)N(C)C1=O [pd166] ([NMeβAla]L[NMeL]I[NMeF][NMeL][NMeF]S(tBu)[NMeL][NMeT][NMeA][NMeL][NMeD]-Piperidide; lactam N-13)
0.23 | 0.23 10^-6 cm/sec | 35.9 | 33.0 | CC[C@@H]1NC(=O)[C@H](Cc2ccccc2)N(C)C(=O)[C@H]([C@@H](C)O)NC(=O)[C@H](CC(C)C)N(C)C(=O)[C@H](C)N(C)C(=O)C[C@@H](C(=O)N2CCCCC2)N(C)C(=O)[C@H](CC(C)C)N(C)C(=O)[C@H]([C@@H](C)CC)N(C)C(=O)CN(C)C(=O)[C@H](CC(C)C)NC(=O)[C@H](Cc2ccccc2)N(C)C(=O)[C@H](CC(C)C)N(C)C(=O)[C@H]([C@@H](C)CC)N(C)C1=O [pd167] ([NMeA][NMeL]T[NMeF][Abu][NMeI][NMeL][NMeF]L[Sar][NMeI][NMeL][NMeD]-Piperidide; lactam N-13)
1.11 | 1.11 10^-6 cm/sec | 21.9 | 21.8 | CCCCN1CC(=O)N(C)[C@@H](Cc2ccccc2)C(=O)N[C@@H](CC(C)C)C(=O)N(C)[C@@H](C(C)C)C(=O)N(C)[C@@H](C)C(=O)N[C@@H](COC(C)(C)C)C(=O)N(C)[C@@H](CC)C(=O)N(C)[C@H](C(=O)N2CCCCC2)CC(=O)N(C)CC(=O)N(C)[C@@H](Cc2ccccc2)C(=O)N[C@@H]([C@@H](C)CC)C(=O)N(C)[C@@H](CC(C)C)C(=O)N(C)[C@@H]([C@@H](C)O)C1=O [pd168] ([Sar][NMeF]I[NMeL][NMeT][NBuGly][NMeF]L[NMeV][NMeA]S(tBu)[NMeAbu][NMeD]-Piperidide; lactam N-13)

SMILES | Papp A→B [1] [×10⁻⁶ cm/s] | Caco2 Papp (10^-6 cm/sec) (Caco-2 cells) | microsomal CLint at 1 µM [2] [µL/min/mg] | Mouse Hepatic Microsome CLh,int NADPH(-) [2] [µL/min/mg Protein]
CC[C@H](C)[C@@H]1NC(=O)CN(C)C(=O)C[C@@H](C(=O)N2CCCCC2)N(C)C(=O)[C@H](Cc2ccccc2)N(C)C(=O)[C@H](CC(C)C)N(C)C(=O)[C@H]([C@@H](C)O)NC(=O)[C@H](CC(C)C)N(C)C(=O)[C@H](CC(C)C)NC(=O)[C@H](C(C)C)N(C)C(=O)[C@H](C)N(C)C(=O)[C@H](CC(C)C)N(C)C(=O)[C@H](CCc2ccccc2)NC(=O)[C@H](CC(C)C)N(C)C1=O [pd165] ([Sar]I[NMeL][hPhe][NMeL][NMeA][NMeV]L[NMeL]T[NMeL][NMeF][NMeD]-Piperidide; lactam N-13) | 0.1 | 0.10 10^-6 cm/sec | 40.9 | 27.2
